Measured values from patent US7928206B2 (priority 2002, dated 2011).
Where two headings read alike, the source gives them in different places.

Key:
[1] = system: glioblastoma U-87 MG cells transduced with PZG69: TomTK1 (tomato TK1, SEQ ID NO: 4); experiment: cells; conditions: Homo sapiens, 120 h, 5 days of drug exposure
Experimental: (§1) Arabidopsis constructs based on AT-TK1a were cut with BamHI/XhoI, and tomato PCR fragments were cut with BglII/XhoI, and cloned into the BglII-XhoI site of plasmid vector pLCXSN, which is a retroviral transfer vector derived from pLXSN (Clontech, cat# K1060-B) by insertion of the CMV promoter upstream of the polylinker.
(§2) Each experiment was performed in four replicates.

[2] = target: T1, rAT-TK1a, Arabidopsis thaliana thymidine kinase AT-TK1a, recombinant wild type, SEQ ID NO: 9 (Arabidopsis thaliana, UniProt Q9S750); experiment: Kinetic constants of purified recombinant thymidine kinase (rAT-TK1a); assay type: biochemical, thale cress (Arabidopsis thaliana); conditions: substrate AZT
Experimental: (§3) Transformed KY895 were grown to an OD600 nm of 0.5-06 in LB/Ampicillin (100 μg/ml) medium at 37° C. and protein expression was induced by addition of IPTG to make 100 μM. The cells were further grown for 4 h at 25° C. and subsequently harvested by centrifugation.

Glioblastoma U-87 MG = experiment: Cell proliferation assay (XTT), sensitivity to AZT of transduced cells; assay type: cell-based; conditions: Homo sapiens, parental U-87 MG, construct None
Experimental: 293T packaging cells (ATTC CRL-11268) were cultured at 37° C. in OPTIMEM 1 medium (Life Technologies, Inc.). The constructed pLCXSN plasmid vector was transfected into the packaging cells using LipofectAMINE PLUS (Life Technology Inc.) according to the protocol provided by the supplier. The medium from the transfected cells was collected 48 hours after transfection, filtered through a […] filter, pelleted by ultracentrifugation (50,000×g, 90 minutes at 4° C.) and dissolved in TEN buffer (100 mM NaCl, 10 mM Tris pH 7.5, 1 mM EDTA).
The virus-containing buffer was subsequently used to transduce the cancer cell lines with MOI of 5.
as §2

[3] = target: T2, rAT-ΔN45TK1b, Arabidopsis thaliana thymidine kinase AT-TK1b (SEQ ID NO: 13) with N-terminal deletion of 45 amino acids (Arabidopsis thaliana, UniProt F4KBF5); experiment: Kinetic constants of purified recombinant thymidine kinase (rAT-ΔN45TK1b); assay type: biochemical, thale cress (Arabidopsis thaliana); conditions: substrate AZT
T2 sequence (F4KBF5 51-282): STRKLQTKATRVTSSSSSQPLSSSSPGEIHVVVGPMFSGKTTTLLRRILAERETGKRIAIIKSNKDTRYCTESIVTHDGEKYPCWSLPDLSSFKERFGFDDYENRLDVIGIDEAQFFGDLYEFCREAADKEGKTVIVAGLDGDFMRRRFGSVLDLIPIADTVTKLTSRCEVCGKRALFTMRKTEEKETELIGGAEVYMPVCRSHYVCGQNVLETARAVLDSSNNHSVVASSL
Experimental: An N-terminal deletion of 45 amino acids was achieved by using the primers
The resulting plasmid was named pGEX-2T-AT-ΔN45TK1b (P663).
as §3

[4] = target: rHSV1-TK, human Herpes simplex virus type 1 thymidine kinase (Human alphaherpesvirus 1 strain 17, UniProt P0DTH5); experiment: Kinetic constants of purified recombinant thymidine kinase (rHSV1-TK); assay type: biochemical; conditions: substrate AZT
Experimental: as §3

[5] = target: rTOM-TK1, tomato (Lycopersicum esculentum) thymidine kinase, recombinant wild type, SEQ ID NO: 4 (Solanum lycopersicum, UniProt Q71F77); assay type: biochemical; conditions: substrate AZT
Experimental: as §3

[6] = system: glioblastoma U-87 MG cells transduced with pLCXSN (retroviral vector alone); experiment: cells; conditions: Homo sapiens, 120 h, 5 days of drug exposure
[7] = Cell proliferation (XTT), sensitivity to AZT; assay type: cell-based; conditions: Homo sapiens, U-87 MG, 120 h, 5 days of drug exposure
Experimental: as §1, §2

[8] = system: glioblastoma U-87 MG cells transduced with PZG53: AtTK1 (AT-TK1a, Arabidopsis thaliana, SEQ ID NO: 9); experiment: Cell proliferation (XTT), sensitivity to AZT; assay type: cell-based; conditions: Homo sapiens, 120 h, 5 days of drug exposure
Experimental: as §1, §2

[9] = system: glioblastoma U-87 MG cells transduced with HSV1-TK (human Herpes simplex virus type 1 thymidine kinase); experiment: Cell proliferation (XTT), sensitivity to AZT; assay type: cell-based; conditions: 120 h, 5 days of drug exposure
Experimental: as §2

[10] = AZT monophosphate kinase activity; assay type: biochemical; conditions: 30 mU enzyme, 100 μM 3H-labelled substrate
Experimental: (§4) 5 μl, of this mixture were plated on polyethylenimine-cellulose plates, which were developed ascending in 0.5 M […]. The spots with the nucleosides and nucleotides were identified under UV light and cut out.
The radioactivity in the spots was extracted with 0.2 M KCl in 0.1 M HCl, and determined by liquid scintillation counting. 1 pmol radioactive nucleoside/tide counts 850 cpm. […]

[11] = dTMP kinase activity (monophosphate to diphosphate); assay type: biochemical; conditions: 30 mU enzyme, 100 μM 3H-labelled substrate, 0 to 120 minutes
Experimental: as §4
The radioactivity in the spots was extracted with 0.2 M KCl in 0.1 M HCl, and determined by liquid scintillation counting. 1 pmol radioactive nucleoside/tide counts 850 cpm.
The cpm obtained at the indicated times (15, 30, 60, 90 and 120 minutes, respectively) are determined in the TDP spots derived from 2.5 μl of the reaction mixture.

[12] = target: T2, rAT-ΔN45TK1b, Arabidopsis thaliana thymidine kinase AT-TK1b (SEQ ID NO: 13) with N-terminal deletion of 45 amino acids; conditions: substrate Thd; data from Le Breton C, B. Sc. Report 2002; cited from earlier work
[13] = target: T1, rAT-TK1a, Arabidopsis thaliana thymidine kinase AT-TK1a, recombinant wild type, SEQ ID NO: 9; conditions: substrate Thd, data from Le Breton C, B. Sc. Report 2002, cited from earlier work
[14] = Kinetic constants of purified recombinant TK, substrate AZT; conditions: from Tables 6 and 7
[15] = transient polyclonal cell lines

Chain of rHSV1-TK, human Herpes simplex virus type 1 thymidine kinase (P0DTH5 whole entry): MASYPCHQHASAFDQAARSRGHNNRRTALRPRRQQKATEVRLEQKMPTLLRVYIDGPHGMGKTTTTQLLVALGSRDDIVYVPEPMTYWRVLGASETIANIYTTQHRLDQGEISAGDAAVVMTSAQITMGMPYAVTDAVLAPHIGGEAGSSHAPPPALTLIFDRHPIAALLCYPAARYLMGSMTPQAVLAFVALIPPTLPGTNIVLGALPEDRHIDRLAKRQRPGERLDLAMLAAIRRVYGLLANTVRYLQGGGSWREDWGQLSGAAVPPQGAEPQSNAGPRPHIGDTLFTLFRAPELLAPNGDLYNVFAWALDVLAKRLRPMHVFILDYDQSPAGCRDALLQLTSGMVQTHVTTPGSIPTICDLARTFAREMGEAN

Cc1cn([C@H]2C[C@H](N=[N+]=[N-])[C@@H](CO)O2)c(=O)[nH]c1=O [AZT, 3′-azido-3′-deoxythymidine]
IC50 ([1]; stable polyclonal cell lines): 17 µM
IC50 [1, 15]: 47 µM
Km [2]: 3.55 µM
Vmax for AZT [2]: 244 mU/mg
kcat for AZT [2]: 0.106 s⁻¹
IC50 (Glioblastoma U-87 MG; listed under stable polyclonal cell lines): 2.44 mM
IC50 (Glioblastoma U-87 MG; listed under transient polyclonal cell lines): 4.47 mM
Vmax for AZT [3]: 242 mU/mg
kcat for AZT [3]: 0.104 s⁻¹
Km ([4]; read-out: Km for AZT): 1700 nM
Vmax for AZT [4]: 4.1 mU/mg
kcat for AZT [4]: 0.028 s⁻¹
Km [5]: 22.4 µM
Vmax for AZT [5]: 1579 mU/mg
kcat for AZT [5]: 0.681 s⁻¹
IC50 ([6]; stable polyclonal cell lines): 4.07 mM
IC50 [6, 15]: > 5 mM
IC50 ([7]; stable polyclonal cell lines, cells transduced with PZG56 construct): 132 µM
IC50 ([7]; stable polyclonal cell lines, cells transduced with PZG59 construct): 25.1 µM
IC50 ([7]; transient polyclonal cell lines, cells transduced with PZG56 construct): 303 µM
IC50 ([7]; transient polyclonal cell lines, cells transduced with PZG59 construct): 26 µM
IC50 ([8]; stable polyclonal cell lines): 71.9 µM
IC50 [8, 15]: 97 µM
IC50 ([9]; stable polyclonal cell lines): 2.58 mM
IC50 [9, 15]: > 5 mM

HSV1-TK: human Herpes simplex virus type 1 thymidine kinase, control; in Table 4 expressed from the pLCXSN vector, in Example 6 purified enzyme
degree of phosphorylation of AZT-monophosphate, lower than the thymidine substrate [10]: 10 fold
phosphorylation of AZT-monophosphate ([10]; 0 to 120 minutes): phosphorylates both substrates
phosphorylation of TMP to TDP [11]: phosphorylates both substrates

Cc1cn([C@H]2C[C@H](O)[C@@H](CO)O2)c(=O)[nH]c1=O [Thd, thymidine]
Vmax for Thd [12]: 165 mU/mg
kcat for Thd [12]: 0.071 s⁻¹
Km ([13]; read-out: Km for Thd): 85 µM
Vmax for Thd [13]: 452 mU/mg
kcat for Thd [13]: 0.2 s⁻¹

B1: rAT-TK1a: purified recombinant Arabidopsis thaliana thymidine kinase TK1a, SEQ ID NO: 9 (protein, listed as Arabidopsis thaliana)
chain: MATLKASFLIKTLDSDVTGDFLSDLERRGSGAVHVIMGPMFSGKSTSLLRRIKSEISDGRSVAMLKSSKDTRYAKDSVVTHDGIGFPCWALPDLMSFPEKFGLDAYNKLDVIGIDEAQFFGDLYEFCCKVADDDGKIVIVAGLDGDYLRRSFGAVLDIIPIADSVTKLTARCEVCGHKAFFTLRKNCDTRTELIGGADVYMPVCRKHYITNHIVIKASKKVLEDSDKARAESCVAATI
ratio [kcat/Km (Thd)]/[kcat/Km (AZT)] [14]: 0.08

B2: rTOM-TK1: purified recombinant tomato (Lycopersicum esculentum) thymidine kinase, SEQ ID NO: 4 (protein, listed as Lycopersicon esculentum)
chain: MAFSSSARNPVDLRNGSKNSFCPVGEIHVIVGPMFAGKTTALLRRVNLESNDGRNVVLIKSSKDARYAVDAVVTHDGTRFPCWSLPDLSSFKQRFGKDAYEKVDVIGIDEAQFFGDLYEFCCNAADFDGKIIVVAGLDGDYLRKSFGSVLDIIPLADTVTKLTARCELCNRRAFFTFRKTNETETELIGGADIYMPVCRQHYVNGQSVNESAKMVLESHKVSNELILESPLVDP
ratio [kcat/Km (Thd)]/[kcat/Km (AZT)] [14]: 1.07
